Laboratory results: patent publication US8557805B2, “Fused ring compound and use thereof” (Takeda Pharmaceutical Company Limited, priority 2008, dated 2013)
pEC50: −log10 of the molar value.

What was measured:
[1] = target: T1, human liver GK (GST-hLGK1) (Homo sapiens, UniProt P35557); assay: Determination of GK activity value (Mant-ATP to Mant-ADP conversion, capillary electrophoresis); type: biochemical; conditions: reaction started with 25 mM D-glucose solution, 37° C., 60 min, concentration at midpoint between maximum activity value and control group activity value
T1 construct: with a BamHI site added to immediately before the initiation codon; made in house; host or cells: Escherichia coli BL21 (Stratagene), plasmid pGEX6P-2/hLGK1
T1 sequence (P35557 1-464 isoform P35557-3): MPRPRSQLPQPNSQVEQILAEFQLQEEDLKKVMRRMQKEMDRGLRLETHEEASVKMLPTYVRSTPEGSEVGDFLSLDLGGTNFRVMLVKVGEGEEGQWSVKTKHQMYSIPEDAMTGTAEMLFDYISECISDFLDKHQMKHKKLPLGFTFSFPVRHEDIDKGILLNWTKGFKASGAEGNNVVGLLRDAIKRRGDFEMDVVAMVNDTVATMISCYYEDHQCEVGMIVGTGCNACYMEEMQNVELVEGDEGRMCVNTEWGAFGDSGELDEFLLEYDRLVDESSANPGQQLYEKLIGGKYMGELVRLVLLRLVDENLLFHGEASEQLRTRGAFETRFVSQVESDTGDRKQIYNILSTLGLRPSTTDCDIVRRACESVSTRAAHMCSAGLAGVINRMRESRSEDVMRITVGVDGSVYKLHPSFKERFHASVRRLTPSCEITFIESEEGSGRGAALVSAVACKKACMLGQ
Method: Plasmid DNA to be used for the expression of a protein (GST-hLGK1) containing GST (Glutathione S-transferase) added to the amino terminal of human liver GK in Escherichia coli was prepared as follows.
First, PCR was performed using human liver cDNA (Marathon Ready cDNA, Clontech Laboratories, Inc.) as a template and two kinds of synthetic DNAs (5′-[…]-3′ (SEQ ID NO: 1) and 5′-[…]-3′ (SEQ ID NO: 2)), and the obtained DNA fragment was closed using a TOPO TA Cloning Kit (Invitrogen Corporation). PCR was performed using the obtained plasmid DNA as a template and a synthetic DNA (5′-[…] CAGAG-3′ (SEQ ID NO: 3)) with a BamHI site added to immediately before the initiation codon, and a synthetic DNA (5′-[…]-3′ (SEQ ID NO: 4)) with an EcoRI site added to immediately after the stop codon. The obtained DNA fragment was subcloned to pGEX6P-2 (Amersham Biosciences K.K.) cleaved with BamHI and EcoRI to give a plasmid (pGEX6P-2/hLGK1) for expression of human liver GK.
BL21 strain (Stratagene) transformed with pGEX6P-2/hLGK1 obtained in (1) was cultured with shaking at 37° C. for 14 hr in a 200 ml Erlenmeyer flask containing 50 ml of 100 μg/ml ampicillin-containing LB medium. The culture medium (25 ml) was diluted with 225 ml of 100 μg/ml ampicillin-containing LB medium, and further cultured with shaking at 37° C. for 1 hr in a 1 L Erlenmeyer flask. After culture, the Erlenmeyer flask was cooled on ice, 125 μL of 100 mM isopropyl-thio-β-D-galactopyranoside (IPTG) was added (final concentration 50 μM), and cultured at 17° C. for 20 hr. The culture medium was centrifuged, and the obtained fungus was disrupted by ultrasonication. The object protein (GST-hLGK1) was purified from the supernatant using Glutathione Sepharose 4B (Amersham Biosciences K.K.).
A solution (5 μL) of test compound in 50% dimethyl sulfoxide was added to each well of 384 well black plate (Nalge Nunc International K.K.). Then, a solution (35 μL) obtained by diluting GST-hLGK1 obtained in (2) with measurement buffer (containing 50 mM HEPES (pH 7.4), 200 mM KCl, 5 mM MgCl2, 2.5 mM DTT and 50 μM 2′-(or-3′)-O—(N-methylanthraniloyl)adenosine 5′-triphosphate (Mant-ATP) (Jena Bioscience GmbH)) to 6 μg/mL was added to each well.
Each well was stood at 37° C. for 10 min, and 25 mM D-glucose solution (10 μL) was added to start the reaction.
Each well after the reaction was stood at 37° C. for 60 min, and the reaction was quenched by adding 25 μL of a quenching solution (containing 200 mM HEPES (pH 7.4), 20 mM MgCl2, 200 mM EDTA, 0.03% Triton-X 100, 0.3% Coating 3 reagent (Caliper Life Sciences, Inc.)).
2′-(or -3′)-O—(N-methylanthraniloyl)adenosine 5′-triphosphate (Mant-ATP, substrate) and Mant-ADP (reaction resultant product) were separated from each well after the reaction by a microchip type capillary electrophoresis apparatus 250 HTS (Caliper Life Sciences, Inc.). The reaction rate [(reaction resultant product peak height)/(reaction resultant product peak height+substrate peak height)×100(%)] was calculated from the ratio of the substrate peak height and reaction resultant product peak height obtained by fluorescence detection (excitation wavelength 355 nm, measurement wavelength 460 nm) and used as the index of GK activity.
3.5 As a control group, the reaction rate was calculated in the same manner as above except that “solution in 50% dimethyl sulfoxide (without test compound)” was used instead of “solution of test compound in 50% dimethyl sulfoxide”.
A concentration dependency curve of the test compound was drawn with the percentage obtained by dividing the reaction rate of the well added with the test compound (test compound addition group) by the reaction rate of the control group was taken as the GK activity value of the test compound, and the concentration of the test compound at the midpoint between the maximum activity value of the test compound addition group and the control group activity value is shown as EC50 value.

Row | pEC50 [1] | melting point | Compound
1 | 7.80 | – | CS(=O)(=O)c1ccc(Oc2cc(OC3CCOCC3)c3[nH]c(C4=NCC(CC(N)=O)S4)cc3c2)cn1 (single isomer, unassigned) [Example 32, 2-{2-[5-{[6-(Methylsulfonyl)pyridin-3-yl]oxy}-7-(tetrahydro-2H-pyran-4-yloxy)-1H-indol-2-yl]-4,5-dihydro-1,3-thiazol-5-yl}acetamide]
2 | 7.59 | – | CS(=O)(=O)c1ccc(Oc2cc(OC3CCOCC3)c3[nH]c(C4=NCC(CC(N)=O)S4)cc3c2)cn1 (single isomer, unassigned) [Example 33, 2-{2-[5-{[6-(Methylsulfonyl)pyridin-3-yl]oxy}-7-(tetrahydro-2H-pyran-4-yloxy)-1H-indol-2-yl]-4,5-dihydro-1,3-thiazol-5-yl}acetamide]
3 | 7.51 | – | CNC(=O)CC1CN=C(c2cc3cc(Oc4ccc(S(C)(=O)=O)nc4)cc(OC4CCOCC4)c3[nH]2)S1 (single isomer, unassigned) [Example 35, N-Methyl-2-{2-[5-{[6-(methylsulfonyl)pyridin-3-yl]oxy}-7-(tetrahydro-2H-pyran-4-yloxy)-1H-indol-2-yl]-4,5-dihydro-1,3-thiazol-5-yl}acetamide]
4 | 7.80 | – | CNC(=O)CC1CN=C(c2cc3cc(Oc4ccc(S(C)(=O)=O)nc4)cc(OC4CCOCC4)c3[nH]2)S1 (single isomer, unassigned) [Example 36, N-Methyl-2-{2-[5-{[6-(methylsulfonyl)pyridin-3-yl]oxy}-7-(tetrahydro-2H-pyran-4-yloxy)-1H-indol-2-yl]-4,5-dihydro-1,3-thiazol-5-yl}acetamide]
5 | 7.18 | – | CN(C)C(=O)CC1CN=C(c2cc3cc(Oc4ccc(S(C)(=O)=O)nc4)ccc3[nH]2)S1 (single isomer, unassigned) [Example 65, N,N-Dimethyl-2-[2-(5-{[6-(methylsulfonyl)pyridin-3-yl]oxy}-1H-indol-2-yl)-4,5-dihydro-1,3-thiazol-5-yl]acetamide]
6 | 7.05 | – | COCCNC(=O)CC1CN=C(c2cc3cc(Oc4ccc(S(C)(=O)=O)nc4)ccc3[nH]2)S1 (single isomer, unassigned) [Example 67, N-(2-Methoxyethyl)-2-[2-(5-{[6-(methylsulfonyl)pyridin-3-yl]oxy}-1H-indol-2-yl)-4,5-dihydro-1,3-thiazol-5-yl]acetamide]
7 | 7.55 | 167 to 168 °C | CS(=O)(=O)c1ccc(Oc2ccc3[nH]c(C4=NCC(CC(=O)N5CCOCC5)S4)cc3c2)cn1 (single isomer, unassigned) [Example 69, 5-{[6-(Methylsulfonyl)pyridin-3-yl]oxy}-2-[5-(2-morpholin-4-yl-2-oxoethyl)-4,5-dihydro-1,3-thiazol-2-yl]-1H-indole]
8 | 7.10 | 178 to 180 °C | CNC(=O)CC1CN=C(c2cc3cc(Oc4ccc(S(C)(=O)=O)nc4)ccc3[nH]2)S1 (single isomer, unassigned) [Example 78, N-Methyl-2-[2-(5-{[6-(methylsulfonyl)pyridin-3-yl]oxy}-1H-indol-2-yl)-4,5-dihydro-1,3-thiazol-5-yl]acetamide]
9 | 7.74 | 116 to 117 °C | CS(=O)(=O)c1ccc(Oc2cc(OC3CCOCC3)c3[nH]c(C4=NCC(CCO)S4)cc3c2)cc1 (stereo not shown) [Example 2, 2-(2-{5-[4-(Methylsulfonyl)phenoxy]-7-(tetrahydro-2H-pyran-4-yloxy)-1H-indol-2-yl}-4,5-dihydro-1,3-thiazol-5-yl)ethanol]
10 | 7.82 | 163 to 164 °C | CC(C)(O)CC1CN=C(c2cc3cc(Oc4ccc(S(C)(=O)=O)cc4)cc(OC4CCOCC4)c3[nH]2)S1 (stereo not shown) [Example 3, 2-Methyl-1-(2-{5-[4-(methylsulfonyl)phenoxy]-7-(tetrahydro-2H-pyran-4-yloxy)-1H-indol-2-yl}-4,5-dihydro-1,3-thiazol-5-yl)propan-2-ol]
11 | 7.85 | – | COCc1ccc(Oc2cc(OC3CCOCC3)c3[nH]c(C4=NCC(CCO)S4)cc3c2)cn1 (stereo not shown) [Example 7, 2-{2-[5-{[6-(Methoxymethyl)pyridin-3-yl]oxy}-7-(tetrahydro-2H-pyran-4-yloxy)-1H-indol-2-yl]-4,5-dihydro-1,3-thiazol-5-yl}ethanol]
12 | 7.74 | 108 to 110 °C | COCc1ccc(Oc2cc(OC3CCOCC3)c3[nH]c(C4=NCC(CC(C)(C)O)S4)cc3c2)cn1 (stereo not shown) [Example 8, 1-{2-[5-{[6-(Methoxymethyl)pyridin-3-yl]oxy}-7-(tetrahydro-2H-pyran-4-yloxy)-1H-indol-2-yl]-4,5-dihydro-1,3-thiazol-5-yl}-2-methylpropan-2-ol]
13 | 7.21 | 129 to 130 °C | CC(C)(O)CC1CN=C(c2cc3cc(Oc4ccc(S(C)(=O)=O)cn4)cc(OC4CCOCC4)c3[nH]2)S1 (stereo not shown) [Example 14, 2-Methyl-1-{2-[5-{[5-(methylsulfonyl)pyridin-2-yl]oxy}-7-(tetrahydro-2H-pyran-4-yloxy)-1H-indol-2-yl]-4,5-dihydro-1,3-thiazol-5-yl}propan-2-ol]
14 | 7.05 | 170 to 172 °C | CNC(=O)CC1CN=C(c2cc3cc(Oc4ccc(S(C)(=O)=O)cn4)cc(OC4CCOCC4)c3[nH]2)S1 (stereo not shown) [Example 17, N-Methyl-2-{2-[5-{[5-(methylsulfonyl)pyridin-2-yl]oxy}-7-(tetrahydro-2H-pyran-4-yloxy)-1H-indol-2-yl]-4,5-dihydro-1,3-thiazol-5-yl}acetamide]
15 | 7.57 | – | COCCOCc1ccc(Oc2cc(OC3CCOCC3)c3[nH]c(C4=NCC(CCO)S4)cc3c2)cn1 (stereo not shown) [Example 20, 2-{2-[5-({6-[(2-Methoxyethoxy)methyl]pyridin-3-yl}oxy)-7-(tetrahydro-2H-pyran-4-yloxy)-1H-indol-2-yl]-4,5-dihydro-1,3-thiazol-5-yl}ethanol]
16 | 7.72 | – | CS(=O)(=O)Cc1ccc(Oc2cc(OC3CCOCC3)c3[nH]c(C4=NCC(CCO)S4)cc3c2)cn1 (stereo not shown) [Example 24, 2-{2-[5-({6-[(Methylsulfonyl)methyl]pyridin-3-yl}oxy)-7-(tetrahydro-2H-pyran-4-yloxy)-1H-indol-2-yl]-4,5-dihydro-1,3-thiazol-5-yl}ethanol]
17 | 7.80 | 175 to 176 °C | CS(=O)(=O)c1ccc(Oc2cc(OC3CCOCC3)c3[nH]c(C4=NCC(CC(=O)NC5CC5)S4)cc3c2)cn1 (stereo not shown) [Example 37, N-Cyclopropyl-2-{2-[5-{[6-(methylsulfonyl)pyridin-3-yl]oxy}-7-(tetrahydro-2H-pyran-4-yloxy)-1H-indol-2-yl]-4,5-dihydro-1,3-thiazol-5-yl}acetamide]
